Publication PMC5152921, “Evolutionary and Functional Diversification of the Vitamin D Receptor-Lithocholic Acid Partnership” (PLoS ONE, 2016)

Columns and labels:
Test in all cases: Competitive ligand binding assay ([3H]-1,25D3 displacement)
Details in all cases: lysate with VDR and human RXRWT; 4 nM [3H]-1,25D3; 18 hours at 4°C; Cheng-Prusoff; mean ± SEM
[1] = target: T1, Bichir VDR (Polypterus senegalus, UniProt A0A088GJ14)
T1 sequence (A0A088GJ14 1-421): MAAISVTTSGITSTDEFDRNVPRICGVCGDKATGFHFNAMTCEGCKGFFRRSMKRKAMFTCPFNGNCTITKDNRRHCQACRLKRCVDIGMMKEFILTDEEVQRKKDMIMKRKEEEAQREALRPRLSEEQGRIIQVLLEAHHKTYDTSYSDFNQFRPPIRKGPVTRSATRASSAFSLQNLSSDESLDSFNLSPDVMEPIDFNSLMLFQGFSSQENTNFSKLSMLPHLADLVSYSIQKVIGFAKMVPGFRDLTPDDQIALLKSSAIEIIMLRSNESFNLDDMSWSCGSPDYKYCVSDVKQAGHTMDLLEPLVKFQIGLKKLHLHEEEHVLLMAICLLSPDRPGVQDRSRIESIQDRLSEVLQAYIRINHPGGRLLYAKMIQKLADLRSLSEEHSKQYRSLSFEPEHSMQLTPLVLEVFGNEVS
T1 sequence (P19793 1-462 partner): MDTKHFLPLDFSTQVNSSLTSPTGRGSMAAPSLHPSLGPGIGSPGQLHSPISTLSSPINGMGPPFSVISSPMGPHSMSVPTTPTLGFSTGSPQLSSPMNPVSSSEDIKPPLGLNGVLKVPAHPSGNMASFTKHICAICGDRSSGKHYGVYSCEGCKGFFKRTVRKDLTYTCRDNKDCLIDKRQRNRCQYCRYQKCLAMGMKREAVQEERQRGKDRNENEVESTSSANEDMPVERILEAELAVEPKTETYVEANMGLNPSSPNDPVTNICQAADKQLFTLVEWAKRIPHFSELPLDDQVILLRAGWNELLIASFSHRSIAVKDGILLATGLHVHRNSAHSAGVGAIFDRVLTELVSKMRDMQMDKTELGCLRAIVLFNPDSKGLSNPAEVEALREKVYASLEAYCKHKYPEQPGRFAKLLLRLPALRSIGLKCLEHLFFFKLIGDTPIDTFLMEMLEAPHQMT
Description: (§1) Recombinant VDR and human RXRWT lysates were prepared from transfected COS7 cells (American Type Culture Collection #CRL-1651) as described in detail previously. Lysates were diluted 10-fold in ice-cold assay buffer (10 mM Tris HCl, 150 mM KCl, 1 mM EDTA, 0.3 mM ZnCl2, 5 mM DTT, and 1x protease inhibitor cocktail (100 μM AEBSF, 80 nM aprotinin, 5 μM bestatin, 1.5 μM E-64 (for cysteine proteases), 2 μM leupeptin, 1 μM pepstatin A), pH 7.5). […] Reactions were shaken to mix and incubated for 18 hours at 4°C. Bound and free ligand were separated with the addition of 80 μL of ice-cold separation buffer (2.5% (w/v) activated charcoal, 0.5% (w/v) dextran, 100 mM Na2HPO4, 39 mM NaH2PO4, 150 mM NaCl, 15 mM NaN3, 10% gelatin, pH 7.0), and incubated at 4°C for 15 minutes with shaking every 5 minutes. Reactions were centrifuged at 5,000 x g for 5 minutes at 4°C, and 200 μL of the supernatant containing the VDR-bound ligands was removed for scintillation counting.
(§2) Total binding was determined using lysate from cells transfected with VDR, and nonspecific binding was determined using lysate from cells transfected with the empty pSG5 vector. Specific binding was determined by subtracting non-specific binding counts from the total binding counts.

[2] = target: Medaka VDRα (Oryzias latipes, UniProt B2CCA0)
Description: as §1, §2

[3] = target: T2, Skate VDR (Leucoraja erinacea, UniProt A0A088GDQ7)
T2 sequence (A0A088GDQ7 1-434): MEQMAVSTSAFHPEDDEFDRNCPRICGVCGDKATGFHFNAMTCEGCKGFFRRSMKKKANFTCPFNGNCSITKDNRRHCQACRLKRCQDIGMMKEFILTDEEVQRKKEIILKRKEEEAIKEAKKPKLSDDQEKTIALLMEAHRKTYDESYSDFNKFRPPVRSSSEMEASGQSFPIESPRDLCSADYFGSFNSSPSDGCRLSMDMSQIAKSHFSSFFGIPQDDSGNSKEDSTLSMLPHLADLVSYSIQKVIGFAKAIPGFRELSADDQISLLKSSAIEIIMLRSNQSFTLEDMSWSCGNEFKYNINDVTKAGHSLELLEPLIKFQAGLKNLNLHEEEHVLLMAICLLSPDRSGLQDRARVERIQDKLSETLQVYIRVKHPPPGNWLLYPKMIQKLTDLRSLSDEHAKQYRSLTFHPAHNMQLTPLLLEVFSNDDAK
T2 sequence (P19793 1-462 partner): T1 sequence (P19793 1-462 partner)
Description: as §1, §2

[4] = target: T3, Zebrafish VDRα (Danio rerio, UniProt Q9PTN2)
T3 construct: 89.7 ng/well of full-length pSG5-VDR was co-transfected; expressed in transfected cells; host or cells: COS7
T3 sequence (Q9PTN2 1-453): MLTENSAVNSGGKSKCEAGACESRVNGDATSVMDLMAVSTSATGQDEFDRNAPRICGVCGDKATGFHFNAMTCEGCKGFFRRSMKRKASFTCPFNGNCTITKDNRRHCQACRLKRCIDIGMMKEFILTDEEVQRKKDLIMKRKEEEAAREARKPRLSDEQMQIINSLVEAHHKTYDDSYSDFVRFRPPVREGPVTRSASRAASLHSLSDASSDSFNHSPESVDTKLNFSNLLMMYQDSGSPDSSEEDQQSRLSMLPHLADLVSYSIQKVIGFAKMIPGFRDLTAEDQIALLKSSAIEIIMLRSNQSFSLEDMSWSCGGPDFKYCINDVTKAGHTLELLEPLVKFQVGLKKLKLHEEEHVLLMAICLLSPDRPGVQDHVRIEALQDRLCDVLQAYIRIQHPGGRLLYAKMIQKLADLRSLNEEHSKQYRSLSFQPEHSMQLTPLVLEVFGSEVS
T3 sequence (P19793 1-462 partner): T1 sequence (P19793 1-462 partner)
Description: as §1, §2

[5] = target: T4, Zebrafish VDRβ (Danio rerio, UniProt Q1L673); design: 89.7 ng/well of full-length pSG5-VDR was co-transfected; expressed in transfected cells; host or cells: COS7
T4 sequence (Q1L673 1-422): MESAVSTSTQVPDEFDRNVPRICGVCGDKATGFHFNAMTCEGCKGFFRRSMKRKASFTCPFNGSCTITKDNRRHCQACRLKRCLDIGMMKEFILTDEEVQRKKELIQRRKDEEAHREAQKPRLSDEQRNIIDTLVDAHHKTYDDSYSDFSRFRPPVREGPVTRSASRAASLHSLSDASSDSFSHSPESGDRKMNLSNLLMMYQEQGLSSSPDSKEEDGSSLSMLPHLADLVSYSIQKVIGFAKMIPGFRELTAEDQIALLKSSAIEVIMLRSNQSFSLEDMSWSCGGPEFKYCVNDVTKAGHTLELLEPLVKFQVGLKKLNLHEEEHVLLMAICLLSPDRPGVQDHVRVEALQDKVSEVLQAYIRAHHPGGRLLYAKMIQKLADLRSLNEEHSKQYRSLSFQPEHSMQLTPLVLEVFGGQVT
Description: as §1, §2

Sequence of Medaka VDRα (B2CCA0 entry or part of it, one chain of several): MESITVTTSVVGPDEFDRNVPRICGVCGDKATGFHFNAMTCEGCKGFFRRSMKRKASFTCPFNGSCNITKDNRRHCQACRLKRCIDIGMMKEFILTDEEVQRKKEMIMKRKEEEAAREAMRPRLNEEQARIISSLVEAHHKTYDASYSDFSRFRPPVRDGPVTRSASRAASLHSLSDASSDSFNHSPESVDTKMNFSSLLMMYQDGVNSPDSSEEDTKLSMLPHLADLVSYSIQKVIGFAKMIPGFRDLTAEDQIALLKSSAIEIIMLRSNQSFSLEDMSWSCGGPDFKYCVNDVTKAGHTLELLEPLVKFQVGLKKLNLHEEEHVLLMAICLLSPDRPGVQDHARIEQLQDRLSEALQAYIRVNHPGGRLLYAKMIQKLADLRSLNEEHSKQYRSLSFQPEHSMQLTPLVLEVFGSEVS

Question: With `C[C@H](CCC(=O)O)[C@H]1CC[C@H]2[C@@H]3CC[C@@H]4C[C@H](O)CC[C@]4(C)[C@H]3CC[C@]12C` [LCA, 5β-cholanic acid-3α-ol] as the compound, how does the Ki [1] read?
Answer: 4.2 ± 0.4 µM

Question: What about the Ki [2] of the same compound?
Answer: 6.5 ± 1.9 µM

Question: And the Ki [3]?
Answer: 6.7 ± 2.1 µM

Question: What about the Ki [4] of the same compound?
Answer: 5.5 ± 1.9 µM

Question: What about the Ki [5] of the same compound?
Answer: 6.7 ± 1.9 µM
